Measured values published in ChEMBL document CHEMBL5344440, “Fragment Merging, Growing, and Linking Identify New Trypanothione Reductase Inhibitors for Leishmaniasis” (J Med Chem, 2024).

Assays:
[1] = target: Trypanothione reductase (Leishmania infantum) (UniProt A4HSF7); assay: Inhibition of Leishmania infantum Trypanothione reductase expressed in Escherichia coli BL21 (DE3) assessed as enzyme residual activity using trypanothione as substrate at 100 uM preincubated for 3 mins followed NADPH addition by spectrophotometric analysis
Sequence of Trypanothione reductase (Leishmania infantum) (A4HSF7 as listed by the source): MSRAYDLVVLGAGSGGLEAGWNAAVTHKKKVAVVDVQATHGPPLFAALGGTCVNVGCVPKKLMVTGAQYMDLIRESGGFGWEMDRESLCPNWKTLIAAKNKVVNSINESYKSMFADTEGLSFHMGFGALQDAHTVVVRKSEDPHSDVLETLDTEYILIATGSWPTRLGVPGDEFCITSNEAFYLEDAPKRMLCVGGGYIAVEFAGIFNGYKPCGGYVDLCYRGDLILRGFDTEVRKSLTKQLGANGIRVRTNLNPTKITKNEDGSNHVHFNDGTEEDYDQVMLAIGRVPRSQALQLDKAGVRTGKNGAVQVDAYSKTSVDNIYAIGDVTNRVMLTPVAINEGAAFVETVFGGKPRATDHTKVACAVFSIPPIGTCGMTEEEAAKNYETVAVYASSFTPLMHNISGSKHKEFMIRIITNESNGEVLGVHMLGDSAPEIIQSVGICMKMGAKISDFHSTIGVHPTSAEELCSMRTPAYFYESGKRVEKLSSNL

Leishmania infantum [2] = assay: Antileishmanial activity against axenic amastigote form of Leishmania infantum MHOM/TN/80/IPT1 assessed as parasite growth inhibition measured after 72 hrs by MTT assay; type: functional, organism-based; settings: MHOM/TN/80/IPT1, 72 h
[3] = target: Trypanothione reductase (Leishmania infantum) (UniProt A4HSF7); assay: Inhibition of Leishmania infantum Trypanothione reductase expressed in Escherichia coli BL21 (DE3) assessed as enzyme residual activity using trypanothione as substrate at 10 uM preincubated for 3 mins followed NADPH addition by spectrophotometric analysis
[4] = (§1) Cytotoxicity against PMA-differentiated human THP-1 cells assessed as reduction in cell viability measured after 72 hrs by MTT assay; type: toxicity, cell-based; settings: PMA-differentiated THP-1 cells
[5] = Selectivity index, ratio of CC50 for cytotoxicity against human THP-1 cells to EC50 for antileishmanial activity against axenic amastigote form of Leishmania infantum MHOM/TN/80/IPT1; type: toxicity, cell-based; settings: read-out: Ratio CC50/EC50
[6] = (§2) Cytotoxicity against BALB/c mouse peritoneal macrophages assessed as reduction in cell viability measured after 72 hrs by MTT assay; type: toxicity, cell-based, Peritoneal macrophage; settings: BALB/c, peritoneal macrophages
Leishmania infantum [7] = assay: Antileishmanial activity against amastigote form of Leishmania infantum infected in BALB/c mouse macrophages assessed as reduction in parasite infection at 12.5 uM measured after 72 hrs by Giemsa staining based optical microscopy relative to control; type: functional
[8] = tested on: glutathione reductase versus Leishmania infantum trypanothione reductase; assay: Selectivity index, ratio of IC50 for inhibition of human glutathione reductase expressed in Escherichia coli cells to IC50 for inhibition of Leishmania infantum Trypanothione reductase expressed in Escherichia coli BL21 (DE3); type: toxicity; settings: read-out: Ratio IC50
THP-1 = assay: as §1; type: toxicity, cell-based; settings: thp-1, 72 h
Peritoneal macrophage = assay: as §2; type: toxicity, cell-based; settings: peritoneal macrophage, 72 h

O=C(NCCc1ccc(F)cc1)c1ccco1 gave an Activity [1] of 85.3%.

For C[C@@H]1[C@H](O)[C@@H](C)/C=C/C=C/C=C/C=C/C=C/C=C/C=C/[C@H](O[C@@H]2O[C@H](C)[C@@H](O)[C@H](N)[C@@H]2O)C[C@@H]2O[C@](O)(C[C@@H](O)C[C@@H](O)[C@H](O)CC[C@@H](O)C[C@@H](O)CC(=O)O[C@H]1C)C[C@H](O)[C@H]2C(=O)O [AMPHOTERICIN B], the EC50 (Leishmania infantum [2]) was 0.5 µM.

Work on O=C(NCCc1ccc(F)cc1)c1ccc(CN(C(=O)N2CCN(CCCN3c4ccccc4Sc4ccc(C(F)(F)F)cc43)CC2)c2ccc(F)cc2)o1 yielded an Activity [3] of 70.8%, an EC50 (Leishmania infantum [2]) of 13 µM and a CC50 at 72 h [4] of 23.4 µM. It also gave a selectivity ratio [5] of 1.8 and a CC50 at 72 h [6] of 30.7 µM.

With O=C(O)c1ccc(N(Cc2ccc(C(=O)NCCc3ccc(F)cc3)o2)C(=O)N2CCN(CCCc3ccccc3)CC2)cc1 the selectivity ratio [5] was > 2.

O=C(NCCc1ccc(F)cc1)c1ccc(CNC(=O)N2CC[N+](CCCc3ccccc3)(Cc3ccc(Cl)c(Cl)c3)CC2)o1 gave an inhibition at 12.5 µM (Leishmania infantum [7]) of 40%.

CC(=O)N1CCN(CCCc2ccccc2)CC1 showed an Activity [1] of 77.7%.

O=C(NCCc1ccc(F)cc1)c1ccc(CN(C(=O)N2CCN(CCCN3c4ccccc4Sc4ccc(Cl)cc43)CC2)c2ccc(F)cc2)o1 showed a selectivity ratio [8] of 0.4, a CC50 (THP-1) of 6.5 µM and a selectivity ratio [5] of 0.5. The CC50 (Peritoneal macrophage) was 9.1 µM.

In the case of O=C(NCCc1ccccc1)c1ccc(CN(C(=O)N2CCN(Cc3ccc(Cl)c(Cl)c3)CC2)c2ccc(F)cc2)o1, the Activity [3] is reported as 94.1%, the EC50 (Leishmania infantum [2]) is reported as 10.3 µM and the CC50 at 72 h [4] is reported as 11.7 µM. For the same compound, the selectivity ratio [5] was 1.1 and the CC50 at 72 h [6] was 14.4 µM.
